# Earlier results, collected in patent US11723873B2, “Oral dosage form of ticagrelor and preparation method thereof” (Elite Pharmaceutical Solution Inc., priority 2021, dated 2023).
# How the values were obtained:
# [1] = in vivo
# [2] = room temperature, crystalline powder
Tmax range of formation of the major circulating metabolite [1] [h],median time (Tmax) of formation of the major circulating metabolite [1],aqueous solubility [2],SMILES
1.5 to 5.0,approximately 2.5 hours,–,CCCSc1nc(N[C@@H]2C[C@H]2c2ccc(F)c(F)c2)c2nnn([C@@H]3C[C@H](O)[C@@H](O)[C@H]3O)c2n1 [AR-C124910XX]
–,–,approximately 10 μg/mL,"CCCSc1nc(N[C@@H]2C[C@H]2c2ccc(F)c(F)c2)c2nnn([C@@H]3C[C@H](OCCO)[C@@H](O)[C@H]3O)c2n1 [ticagrelor, (1S,2S,3R,5S)-3-[7-{[(1R,2S)-2-(3,4-difluorophenyl)cyclopropyl]amino}-5-(propylthio)-3H-[1,2,3]-triazolo[4,5-d]pyrimidin-3-yl]-5-(2-hydroxyethoxy)cyclopentane-1,2-diol]"
